Measured values published in patent US20250025397A1, “AN OIL-IN-WATER EMULSION GEL COMPRISING TIOTROPIUM BROMIDE” (Dryox Health, S.L., priority 2021, published 2025).
Read-outs that look alike come from different tables or passages of the source.

Assays:
[1] = cited from earlier work
[2] = Tiotropium maximum solubility in a selection of excipients; format: physicochemical
Protocol: For the evaluation of the compatibility of the active in each excipient, 25 mg of tiotropium bromide (TTB) were weighed in suitable glass containers and increasing amounts of the appropriate solvent were added. The samples were subjected to heating and ultrasonication when necessary. The appearance of the mixture and the maximum concentration of TTB in each solvent was recorded.
The solubility of the active was determined in different excipients (polymer solvents, permeation enhancers, surfactants, emollients, etc.). Table 1 summarizes the maximum solubility achieved in each of them.

Compound: C[N+]1(C)[C@@H]2CC(OC(=O)C(O)(c3cccs3)c3cccs3)C[C@H]1[C@@H]1O[C@@H]12.[Br-] (stereo partly drawn) [Tiotropium bromide, [(1S,2S,4R,5R)-9,9-dimethyl-3-oxa-9-azoniatricyclo[3.3.1.0^2,4]nonan-7-yl]2-hydroxy-2,2-dithiophen-2-ylacetate bromide]
- solubility ([1]; in dimethyl sulphoxide): freely soluble
- solubility ([1]; in methanol): soluble
- solubility ([1]; in methylene chloride): practically insoluble
- solubility ([1]; in water): sparingly soluble
- solubility in aqueous solutions ([1]; room temperature, independent of pH): approx. 2.5%
- Maximum solubility ([2]; in 1,3-propanediol): 2.50 % (w/w)
- Maximum solubility ([2]; in Benzyl Alcohol): 50.00 % (w/w)
- Maximum solubility ([2]; in Cremophor EL): 0.20 % (w/w)
- Maximum solubility ([2]; in Cremophor RH40): <0.12 % (w/w)
- Maximum solubility ([2]; in DMSO): >30.00 % (w/w)
- Maximum solubility ([2]; in Dimethyl fomamide): 40.00 % (w/w)
- Maximum solubility ([2]; in Ethanol): 0.80 % (w/w)
- Maximum solubility ([2]; in Ethyl Oleate): <0.12 % (w/w)
- Maximum solubility ([2]; in Glycerol): 6.00 % (w/w)
- Maximum solubility ([2]; in IPM): <0.12 % (w/w)
- Maximum solubility ([2]; in Isopropyl Alcohol): 0.13 % (w/w)
- Maximum solubility ([2]; in Kollicream ® 3C): <0.12 % (w/w)
- Maximum solubility ([2]; in Labrasol): 0.55 % (w/w)
- Maximum solubility ([2]; in Lactic acid): 20.00 % (w/w)
- Maximum solubility ([2]; in Linseed oil): <0.12 % (w/w)
- Maximum solubility ([2]; in MCT): <0.12 % (w/w)
- Maximum solubility ([2]; in Oleic acid): <0.12 % (w/w)
- Maximum solubility ([2]; in PEG-400): 1.67 % (w/w)
- Maximum solubility ([2]; in Polysorbate 20): 1.15 % (w/w)
- Maximum solubility ([2]; in Polysorbate 80): 0.20 % (w/w)
- Maximum solubility ([2]; in Propylene Glycol): 5.00 % (w/w)
- Maximum solubility ([2]; in Transcutol HP): <0.12 % (w/w)
- Maximum solubility ([2]; in Triacetin): <0.12 % (w/w)
- Maximum solubility ([2]; in Triolein): <0.12 % (w/w)
